# US8138206B2, “Piperidine derivative” (MSD. K.K., priority 2005, dated 2012)
# pIC50: −log10 of the molar value. Where a name gives a salt, the structure may show the parent alone. Read-outs that look alike come from different tables or passages of the source.
# Legend:
# [1] = molecular target: T1, human histamine-H3 receptor (Homo sapiens, UniProt Q9Y5N1); experiment: Histamine analogue-binding inhibition test; details: 50% inhibitory concentration to specific [3H]N-α-methylhistamine binding; membrane specimen of cells expressing histamine-H3 receptor; 25° C., 2 hours
# T1 construct: expressed in transfected cells; host or cells: HEK293 and CHO-K1 (membrane specimen)
# T1 sequence (Q9Y5N1 whole entry): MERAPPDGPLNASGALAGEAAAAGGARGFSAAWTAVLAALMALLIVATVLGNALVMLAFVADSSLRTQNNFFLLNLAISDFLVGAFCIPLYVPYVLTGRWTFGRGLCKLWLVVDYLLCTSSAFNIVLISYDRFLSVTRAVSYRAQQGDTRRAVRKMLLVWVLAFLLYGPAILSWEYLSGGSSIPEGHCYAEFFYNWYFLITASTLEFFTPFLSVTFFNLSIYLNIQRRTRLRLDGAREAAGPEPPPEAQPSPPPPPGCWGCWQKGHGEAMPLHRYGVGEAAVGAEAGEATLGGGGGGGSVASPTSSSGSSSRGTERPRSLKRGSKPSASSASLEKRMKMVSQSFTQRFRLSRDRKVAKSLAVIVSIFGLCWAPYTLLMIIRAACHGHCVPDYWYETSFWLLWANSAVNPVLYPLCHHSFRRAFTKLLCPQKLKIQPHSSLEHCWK
# Description: A cDNA sequence coding for a human histamine-H3 receptor (see WO00/39164) was cloned with expression vectors pCR2.1, pEF1x (by Invitrogen) and pCI-neo (by Promega). The resulting expression vector was transfected into host cells, HEK293 and CHO-K1 (American Type Culture Collection), according to a cationic lipid process [see Proceedings of the National Academy of Sciences of the United States of America, Vol., 84, p. 7413 (1987)] to obtain histamine-H3 receptor expression cells.
# A membrane specimen prepared from the cells having expressed a histamine-H3 receptor was incubated in an assay buffer (50 mM Tris buffer, pH 7.4) along with a test compound and 20,000 cpm [^3H]N-α-methylhistamine (by NEN) therein, at 25° C. for 2 hours, and then filtered through a glass filter GF/C. After washed with 50 mM Tris buffer (pH 7.4), the radioactivity on the glass filter was determined. The non-specific binding was determined in the presence of 10 μM thioperamide (by SIGAM), and the 50% inhibitory concentration (IC50) of the test compound to the specific N-alpha-methylhistamine binding was calculated [Molecular Pharmacology, Vol. 55, p. 1101 (1999)].
# histamine-H3 receptor = molecular target: T2, histamine-H3 receptor (Rattus norvegicus, UniProt Q9QYN8); experiment: Test for antagonistic effect to water-drinking action induced by histamine-H3 receptor selective agonist, R-α-methylhistamine; type: in vivo; details: male SD rat; 30 mg/kg orally 2 hours before R-α-methylhistamine; water drunk for 1 hour
# T2 construct: from tissue; host or cells: living male SD rat (brain, third ventricle administration of the agonist)
# T2 sequence (Q9QYN8 whole entry): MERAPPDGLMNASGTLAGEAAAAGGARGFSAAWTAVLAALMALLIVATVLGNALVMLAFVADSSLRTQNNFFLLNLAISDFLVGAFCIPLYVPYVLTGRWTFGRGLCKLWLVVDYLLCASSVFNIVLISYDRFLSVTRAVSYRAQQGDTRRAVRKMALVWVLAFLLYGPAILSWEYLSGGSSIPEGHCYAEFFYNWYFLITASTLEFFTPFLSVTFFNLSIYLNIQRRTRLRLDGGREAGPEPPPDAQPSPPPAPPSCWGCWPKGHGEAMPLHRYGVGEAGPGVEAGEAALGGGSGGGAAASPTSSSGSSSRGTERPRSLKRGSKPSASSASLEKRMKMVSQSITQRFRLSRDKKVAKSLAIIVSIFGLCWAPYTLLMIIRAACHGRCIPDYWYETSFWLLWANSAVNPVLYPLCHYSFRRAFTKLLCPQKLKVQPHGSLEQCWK
# Protocol: Under anesthesia with ketamine xylazine (74 and 11 mg/kg intraabdominal single administration), a brain stereotaxic device was set in the third ventricle of a male SD rat (7 to 10-week age, […]), and a chronic guide cannula (26 gauge, length 11 mm) was inserted into it and fixed with a dental resin. The position of the tip of the guide cannula is at 2.2 mm after the bregrna on the midline, and at a depth of 8 mm from the surface of the skull. After a restoration term of about 1 week, R-α-methylhistamine (0.3 μg/l μL/head, 30% propylene glycol liquid) was administered into the third ventricle. A test compound (compound of Example 3-8) suspended in an aqueous 0.5% methyl cellulose solution was orally administered to the rat before 2 hours before the R-α-methylhistamine administration; and after the R-α-methylhistamine administration, the amount of water drunk by the rat for 1 hour was measured.
# [2] = Test for brain/cerebrospinal fluid transition; type: in vivo; details: SD male rat, 2 hours after the oral administration (10 mg/kg)
# Description: A test compound (compound of Example 3-8) was orally or intravenously administered to an SD male rat (7 to 10-week age, 200 to 400 g), and under anesthesia with ether for a predetermined period of time, the whole blood was collected from it through the abdominal aorta thereof using a heparin-processed syringe. Next, the head skin was cut, and a dental 30 G needle was stuck into the cervical spine to run through the subarachnoid cavity. Via a tube connected to the dental 30 G needle, from 50 to 100 μl of the cerebrospinal fluid was collected in a 1-mL syringe, and then the brain was taken out. The blood sample was centrifuged (4° C., 6000 revolutions, 10 minutes), and the resulting plasma was stirred with ethanol (containing an internal standard substance) in an amount of three times thereof added to it. The brain sample was homogenized with 2 mL of water added thereto; and a part of it was taken out and stirred with ethanol (containing an internal standard substance) in an amount of three times thereof added to it. The cerebrospinal fluid was stirred with ethanol (containing an internal standard substance) in an amount of three times thereof added to it. The above samples were left at −20° C. for 20 minutes, then centrifuged (4° C., 12,000 g, 10 minutes), and the supernatant was analyzed through LC/MS/MS. According to a relative calibration curve method, the compound concentration in the plasma, in the brain and in the cerebrospinal fluid was determined. As a result, the test compound concentration in the brain was 0.99 nmol/g, that in the cerebrospinal fluid was 0.074 μM and that in the plasma was 0.6 μM, after 2 hours after the oral administration (10 mg/kg).
pIC50 [1],SMILES,also measured
8.52,"COc1ccc(C2(O)CCN(c3ccc(OCCCN4CCCCC4)cc3)CC2)cc1 [Example 2-6, 4-(4-methoxyphenyl)-1-[4-(3-piperidin-1-ylpropoxy)phenyl]piperidin-4-ol trifluoroacetate]",–
8.38,"O=C1COC2(CCN(c3ccc(OCCCN4CCCCC4)cc3)CC2)CN1c1ccccc1 [Example 3-8, 4-phenyl-9-[4-(3-piperidin-1-ylpropoxy)phenyl]-1-oxa-4,9-diazaspiro[5,5]undecan-3-one]","increase in the water drinking induced by the administration of R-α-methylhistamine in the third ventricle (histamine-H3 receptor): significantly inhibited; test compound concentration in the brain [2]: 0.99 nmol/g; concentration at 2 h ([2]; cerebrospinal fluid, read-out: test compound concentration in the cerebrospinal fluid): 74 nM; concentration at 2 h ([2]; plasma, read-out: test compound concentration in the plasma): 600 nM"
9.66,"COc1ncc(N2CC3(CCN(c4ccc(OCCCN5CCCCC5)cc4)CC3)OCC2=O)cn1 [Example 3-15, 4-(2-methoxypyrimidin-5-yl)-9-[4-(3-piperidin-1-ylpropoxy)phenyl]-1-oxa-4,9-diazaspiro[5,5]undecan-3-one]",–
9.03,"O=C1OC2(CCN(c3ccc(OCCCN4CCCCC4)cc3)CC2)CN1c1ccncc1 [Example 3-42, 8-[4-(3-piperidin-1-ylpropoxy)phenyl]-3-(pyridin-4-yl)-1-oxa-3,8-diazaspiro[4,5]decan-2-one]",–
9.72,"C[C@@H]1CCCN1CCCOc1ccc(N2CCC3(CC2)CN(c2ccc(S(C)(=O)=O)cc2)C(=O)CO3)cc1 [Example 3-79, 9-(4-{3-[(2R)-2-methylpyrrolidin-1-yl]propoxy}phenyl)-4-[4-(methylsulfonyl)phenyl]-1-oxa-4,9-diazaspiro[5,5]undecan-3-one]",–
8.92,"C[C@H]1CCCN1CCCOc1ccc(N2CCC3(CC2)CN(c2cnn(C)c2)C(=O)CO3)cc1 [Example 3-95, 4-(1-methyl-1H-pyrazol-4-yl)-9-(4-{3-[(2S)-2-methylpyrrolidin-1-yl]propoxy}phenyl)-1-oxa-4,9-diazaspiro[5,5]undecan-3-one]",–
9.39,"CCN1CC2(CCN(c3ccc(OCCCN4CCC[C@H]4C)cc3)CC2)OC1=O [Example 3-96, 3-ethyl-8-(4-{3-[(2R)-2-methylpyrrolidin-1-yl]propoxy}phenyl)-1-oxa-3,8-diazaspiro[4,5]decan-2-one]",–
9.74,"COc1ccc(N2CC3(CCN(c4ccc(OC5CCN(C6CCC6)CC5)cc4)CC3)OCC2=O)cc1 [Example 3-107, 9-{4-[(1-cyclobutylpiperidin-4-yl)oxy]phenyl}-4-(4-methoxyphenyl)-1-oxa-4,9-diazaspiro[5,5]undecan-3-one]",–
8.97,"CC(C)N1CCC(Oc2ccc(N3CCC4(CC3)CN(c3cnccn3)C(=O)CO4)cc2)CC1 [Example 3-138, 9-{4-[(1-isopropylpiperidin-4-yl)oxy]phenyl}-4-pyrazin-2-yl-1-oxa-4,9-diazaspiro[5,5]undecan-3-one]",–
9.18,"O=C1COC2(CCN(c3ccc(OC4CCN(C5CCC5)CC4)nc3)CC2)CN1c1cccnc1 [Example 3-150, 9-{6-[(1-cyclobutylpiperidin-4-yl)oxy]pyridin-3-yl}-4-pyridin-3-yl-1-oxa-4,9-diazaspiro[5,5]undecan-3-one]",–
10.05,"COc1ccc(N2CC3(CCN(c4ccc(OC5CCN(C6CCC6)CC5)cc4)CC3)OC2=O)cn1 [Example 3-168, 8-{4-[(1-cyclobutylpiperidin-4-yl)oxy]phenyl}-3-(6-methoxypyridin-3-yl)-1-oxa-3,8-diazaspiro[4,5]decan-2-one]",–
8.92,"C[C@H]1CCCN(CCCOc2ccc(N3CCC4(CC3)CN(C3CCCC3)C(=O)CO4)cc2)C1 [Example 4-17, 4-cyclopentyl-9-(4-{3-[(3S)-3-methylpiperidin-1-yl]propoxy}phenyl)-1-oxa-4,9-diazaspiro[5,5]undecan-3-one]",–
